Measured values published in patent US4599352A, “Antineoplastic platinum (IV) complexes and compositions” (priority 1984, dated 1986).

Experiments:
[1] = system: SC Implanted L1210 Leukemia; experiment: Activity against SC implanted L1210 leukemia following intravenous administration, once daily Days 1-5 (Table 5); type: in vivo, CD2Fl male mice; conditions: for Body Weight Difference / Median % T/C / Median Survival Time: 5 mg/kg/inj IV
Procedure: (§1) Biological properties of the compounds of the present invention were determined following the protocol described in Cancer Chemotherapy Reports, Vol. 3, No. 3, 1972 which report is incorporated herein by reference.
In another type of experiment the same platinum complexes were directly compared against the SC implanted L1210 following intravenous administration (Table 5).
This experiment (A8-00004 3LE32) was conducted at the Southern Research Institute, Birmingham, Ala. under the supervision of Dr. Daniel Griswold. The protocols were the same as those published previously (Attachment 11). 10^6 cells were implanted subcutaneously in CD2Fl male mice on Day 0. Drug treatments were given intravenously once daily at the doses indicated on Days 1-5 after tumor implantation. The dosage range tested included the highest and lowest doses indicated in the Table as well as intermediate values which were determined by multiplying each dose in turn by 0.5 starting with the highest dose. The diluent was saline except for NSC-271674 for which 5% sodium bicarbonate was used. All drugs were prepared fresh on the day of injection, and all were administered in solution. Median survival times for both control and drug-treated mice were determined and expressed as a percentage (% T/C). Body weights were determined on Day 5 and expressed as a weight difference (body weight of the drug-treated animals minus that of the control animals in grams) (T-C).

[2] = system: IP-Implanted L1210 Leukemia; experiment: Dose-response against IP-implanted L1210 leukemia, IP treatment Days 1, 5 and 9, 30-day test (Table 2); type: in vivo, CD2Fl male mice; conditions: for Optimal dose (dose producing best therapeutic response): day 1, 5 and 9 schedule
Procedure: as §1
(§2) This experiment (A8-00005 3LE31) was conducted at the Southern Research Institute, Birmingham, Ala. under the supervision of Dr. Daniel Griswold. The protocols were the same as those published previously (Geran et al., Cancer Chemotherapy Reports 3: No. 2, 1972 [Attachment 11]). 10^5 cells were implanted intraperitoneally in CD2Fl male mice on Day 0. Drug treatments were given intraperitoneally as single injections at the doses indicated on Days 1, 5 and 9 after tumor implantation. The diluent was saline except for NSC-271674 where 5% sodium bicarbonate was used. All drugs were prepared fresh on the day of injection, and all were administered in solution. Median survival times for both control and drug-treated mice were determined and expressed as a percentage (% T/C). Body weights were determined on Day 5 and expressed as a weight difference (body weight of the drug-treated animals minus that of the control animals in grams) (T-C). The diluent control animals lived a median of 8.4 days and gained 1.9 grams by Day 5 in this experiment. All animals, including Day 30 survivors, were used in the calculation of median survival times. The log10 change in tumor burden refers to the net log change in viable tumor cell population at the end of therapy (Rx) as compared to the start of therapy; e.g., a […] means that there was a […] and a 3 log change means there was a 1000-fold increase in tumor burden at the end of therapy. The tumor burden at the start of therapy was about 6.1×10^5 cells in this experiment.

IP L1210 = experiment: Activity against IP-implanted L1210 leukemia sensitive to cisplatin, 30 day test (Table 3); type: in vivo, Female CD2Fl mice
Procedure: as §1
Other known mechanisms of resistance for other classes of agents, such as gene amplification or target enzyme change or amplication, also need to be explored. The experiments summarized in Table 3 were conducted at the same time against both sublines using the same drug preparations. […] These experiments were repeated in a second laboratory as documented in Table 4. However, in these experiments the animals were held for 60 rather than 30 days to evaluate whether or not long-term survivors are produced after drug treatment in a more challenging setting.
as §2
These experiments (A8-00008 3LE31 and A8-00001 3DP31) were conducted concurrently at the Southern Research Institute, Birmingham, Ala. under the supervision of Dr. Daniel Griswold. See Table 4 for experimental details. The diluent control animals bearing L1210 leukemia lived a median of 8.6 days and gained 1.3 grams by Day 5. […] Female CD2Fl mice were used for these experiments.

[3] = system: IP-Implanted L1210/Cisplatin; experiment: Comparison of isomers: long term survivors and weight differences in treating IP-implanted L1210/Cisplatin (Table 6); type: in vivo, mice
Excerpt: Comparative data for the others are as follows: 27 for trans d, 27 for trans d l and 13 for cis. […] The higher the ratio the more convenient it is to prepare a formulation for intravenous administration to patients which is shown in Table 7.

[4] = system: L1210 and L1210/Cisplatin leukemia; experiment: Total number of long-term survivors in Tables 2-4; type: in vivo, CD2Fl mice; conditions: Tables 2-4 summed
Excerpt: If one summarizes the data in Tables 2-4 by totalling the number of long-term survivors, unexpected differences among the isomers become apparent. For example, the trans l compound produced 30 long-term survivors.

SMILES: N.N.[Cl][Pt][Cl] [Cisplatin, cis-diamminedichloroplatinum (II), reference compound]
- Body Weight Difference [1]: -5.7 Grams
- Median % T/C [1]: 138%
- Median Survival Time [1]: 14.3 days
- Optimal Dose ([1]; IV once daily Days 1-5): 5 mg/kg/inj
- 30-Day Survivors/Total ([2]; 1.25 mg/kg/dose IP): 0/6
- Approx. Log10 Change in Tumor Burden at End of Rx ([2]; 1.25 mg/kg/dose IP): ~2.9 log10
- Body Weight Difference ([2]; 1.25 mg/kg/dose IP): -1.0 Grams
- Median % T/C ([2]; 1.25 mg/kg/dose IP): 123%
- 30-Day Survivors/Total ([2]; 5 mg/kg/dose IP): 0/6
- Approx. Log10 Change in Tumor Burden at End of Rx ([2]; 5 mg/kg/dose IP): ~2.4 log10
- Body Weight Difference ([2]; 5 mg/kg/dose IP): -1.4 Grams
- Median % T/C ([2]; 5 mg/kg/dose IP): 152%
- 30-Day Survivors/Total ([2]; 10 mg/kg/dose IP): 0/6
- Approx. Log10 Change in Tumor Burden at End of Rx ([2]; 10 mg/kg/dose IP): ~1.9 log10
- Body Weight Difference ([2]; 10 mg/kg/dose IP): -1.3 Grams
- Median % T/C ([2]; 10 mg/kg/dose IP): 166%
- 30-Day Survivors/Total ([2]; 20 mg/kg/dose IP): 3/6
- Approx. Log10 Change in Tumor Burden at End of Rx ([2]; 20 mg/kg/dose IP): ~-5.7 log10
- Body Weight Difference ([2]; 20 mg/kg/dose IP): -5.0 Grams
- Median % T/C ([2]; 20 mg/kg/dose IP): 357%
- Log reduction in tumor cell burden at the end of therapy ([2]; best dose): -5.7 log10
- Optimal dose (dose producing best therapeutic response) [2]: 20 mg/kg/injection
- 30 Day Survivors/Total (IP L1210; 1.25 mg/kg/dose): 0/6
- Approx. Log10 Change in Tumor Burden at End of RX (IP L1210; 1.25 mg/kg/dose): ~3.0 log10
- Median % T/C (IP L1210; 1.25 mg/kg/dose): 116%
- 30 Day Survivors/Total (IP L1210; 5 mg/kg/dose): 0/6
- Approx. Log10 Change in Tumor Burden at End of RX (IP L1210; 5 mg/kg/dose): ~2.2 log10
- Median % T/C (IP L1210; 5 mg/kg/dose): 162%
- 30 Day Survivors/Total (IP L1210; 10 mg/kg/dose): 3/6
- Approx. Log10 Change in Tumor Burden at End of RX (IP L1210; 10 mg/kg/dose): ~-5.9 log10
- Median % T/C (IP L1210; 10 mg/kg/dose): 348%
- 30 Day Survivors/Total (IP L1210; 20 mg/kg/dose): 0/6
- Approx. Log10 Change in Tumor Burden at End of RX (IP L1210; 20 mg/kg/dose): ~2.4 log10
- Median % T/C (IP L1210; 20 mg/kg/dose): 148%

SMILES: [Cl][Pt-2]1([Cl])([Cl])([Cl])[NH2+][C@H]2CCCC[C@@H]2[NH2+]1 [trans (d), (1S, 2S)-Tetrachloro-trans-1,2-cyclohexanediamine platinum (IV)]
- Total Grams of Weight Difference [3]: -11.9 Grams
- Total number of long-term survivors [3]: 11
- Body Weight Difference [1]: -6.4 Grams
- Median % T/C [1]: 172%
- Median Survival Time [1]: 17.8 days
- HNTD (highest nontoxic dose; animal weight difference ≥ -4.0 grams) ([1]; IV once daily Days 1-5): 2.5 mg/kg/inj
- Optimal Dose ([1]; IV once daily Days 1-5): 5.0 mg/kg/inj
- Total number of long-term survivors [4]: 27
- 30-Day Survivors/Total ([2]; 1 mg/kg/dose IP): 0/6
- Body Weight Difference ([2]; 1 mg/kg/dose IP): -0.3 Grams
- Median % T/C ([2]; 1 mg/kg/dose IP): 119%
- 30-Day Survivors/Total ([2]; 2 mg/kg/dose IP): 0/6
- Approx. Log10 Change in Tumor Burden at End of Rx ([2]; 2 mg/kg/dose IP): ~2.7 log10
- Body Weight Difference ([2]; 2 mg/kg/dose IP): -0.6 Grams
- Median % T/C ([2]; 2 mg/kg/dose IP): 134%
- 30-Day Survivors/Total ([2]; 4 mg/kg/dose IP): 1/6
- Approx. Log10 Change in Tumor Burden at End of Rx ([2]; 4 mg/kg/dose IP): ~-1.1 log10
- Body Weight Difference ([2]; 4 mg/kg/dose IP): -0.9 Grams
- Median % T/C ([2]; 4 mg/kg/dose IP): 211%
- 30-Day Survivors/Total ([2]; 8 mg/kg/dose IP): 3/6
- Approx. Log10 Change in Tumor Burden at End of Rx ([2]; 8 mg/kg/dose IP): ~-5.7 log10
- Body Weight Difference ([2]; 8 mg/kg/dose IP): -1.7 Grams
- Median % T/C ([2]; 8 mg/kg/dose IP): 357%
- Body Weight Difference ([2]; 8 mg/kg/dose IP, listed as trans d): less than -4 Grams
- 30-Day Survivors/Total ([2]; 16 mg/kg/dose IP): 1/6
- Approx. Log10 Change in Tumor Burden at End of Rx ([2]; 16 mg/kg/dose IP): ~-2.0 log10
- Body Weight Difference ([2]; 16 mg/kg/dose IP): -4.9 Grams
- Median % T/C ([2]; 16 mg/kg/dose IP): 226%
- Optimal dose (dose producing best therapeutic response) [2]: 8 mg/kg/injection
- 30 Day Survivors/Total (IP L1210; 1 mg/kg/dose): 0/6
- Approx. Log10 Change in Tumor Burden at End of RX (IP L1210; 1 mg/kg/dose): ~3.0 log10
- Median % T/C (IP L1210; 1 mg/kg/dose): 113%
- 30 Day Survivors/Total (IP L1210; 2 mg/kg/dose): 0/6
- Approx. Log10 Change in Tumor Burden at End of RX (IP L1210; 2 mg/kg/dose): ~2.5 log10
- Median % T/C (IP L1210; 2 mg/kg/dose): 144%
- 30 Day Survivors/Total (IP L1210; 4 mg/kg/dose): 2/6
- Approx. Log10 Change in Tumor Burden at End of RX (IP L1210; 4 mg/kg/dose): ~-1.2 log10
- Median % T/C (IP L1210; 4 mg/kg/dose): 209%
- 30 Day Survivors/Total (IP L1210; 8 mg/kg/dose): 3/6
- Approx. Log10 Change in Tumor Burden at End of RX (IP L1210; 8 mg/kg/dose): ~-5.9 log10
- Median % T/C (IP L1210; 8 mg/kg/dose): 348%
- 30 Day Survivors/Total (IP L1210; 16 mg/kg/dose): 0/6
- Median % T/C (IP L1210; 16 mg/kg/dose): 96%
